Source: PMC12588090, “C6-Alkoxy substituted penicillins are potent non-covalently binding inhibitors of the SARS-CoV-2 main protease” (RSC Medicinal Chemistry, 2025)
Values joined by “and” are separate entries in the source; they are usually repeats but may differ in a detail not shown here. Equal values may be shown once. “Also recorded” adds a separate entry of the source. Read-outs that look alike come from different tables or passages of the source.

How the values were obtained:
SARS-CoV-2 M^pro [1] = target: T1, SARS-CoV-2 M^pro (Severe acute respiratory syndrome coronavirus 2, UniProt P0DTD1); format: binding; settings: for covalent reaction with / modification of M^pro / species with mass shifts corresponding to potential acyl–enzyme complexes: β-lactam 15 μM; for covalent reaction with / modification of M^pro: M^pro 3.0 μM (5 : 1), denaturing MS, 20 mM HEPES pH 7.5; for covalent reaction with / modification of M^pro / mass shift of concentration-dependent M^pro adduct / species with mass shifts corresponding to potential acyl–enzyme complexes: >15 h incubation; for mass shift of concentration-dependent M^pro adduct: intensity rises with penicillin derivative : M^pro ratio; for species with mass shifts corresponding to potential acyl–enzyme complexes: M^pro 3.0 μM
SARS-CoV-2 M^pro [2] = target: T1, SARS-CoV-2 M^pro; assay: SPE-MS M^pro inhibition assay; format: biochemical; settings: for increase in M^pro inhibition potency compared to (S)-sulfoxide 22: ratio of IC50 values
SARS-CoV-2 M^pro [3] = target: T1, SARS-CoV-2 M^pro; settings: read-out: IC50 (reported) (converted), cited from earlier work
[4] = test system: human leukocyte elastase (HLE); parameters: method as in doi:10.1016/S0960-894X(01)80940-9; settings: cited from earlier work
[5] = SPE-MS, M^pro 0.05 μM, substrate 2.0 μM, n = 3, mean ± SD, freshly prepared DMSO stocks for 8
[6] = SPE-MS, M^pro 0.05 μM, substrate 2.0 μM, n = 3, mean ± SD, freshly prepared DMSO stocks for 8, read-out: IC50
[7] = IC50, SPE-MS, M^pro 0.05 μM, substrate 2.0 μM, n = 3, mean ± SD, freshly prepared DMSO stocks for 8
[8] = literature value given in Table 1

## CO[C@@]1(NC(=O)COc2ccccc2)C(=O)N2[C@@H](C(=O)OCc3ccccc3)C(C)(C)S(=O)(=O)[C@@H]21 [compound 9]
SARS-CoV-2 M^pro [1]
  covalent reaction with / modification of M^pro: in no case were substantial amounts of species corresponding to covalent modification observed
SARS-CoV-2 M^pro [2]; [5]
  IC50: inactive
SARS-CoV-2 M^pro [2]; [6]
  IC50: > 50 µM

## CO[C@@]1(NC(=O)Cc2ccccc2)C(=O)N2[C@@H](C(=O)OCc3ccccc3)C(C)(C)S[C@@H]21 [compound 25]
SARS-CoV-2 M^pro [2]; [6]
  IC50: 11 ± 6 µM

## CC1(C)S[C@@H]2[C@H](NC(=O)Cc3ccccc3)C(=O)N2[C@H]1C(=O)O [C00011, reference compound]
SARS-CoV-2 M^pro [3]; literature value in Table 2
  IC50: > 50 µM
SARS-CoV-2 M^pro [2]; [7]
  IC50: > 50 µM

## CC1(C)SC2C(Oc3ccccc3)C(=O)N2C1C(=O)OCc1ccccc1 (stereo not shown) [26e]
SARS-CoV-2 M^pro [2]; [6]
  IC50: > 50 µM

## CC1(C)C(C(=O)OCc2ccccc2)N2C(=O)C(OCc3ccccc3)C2S1(=O)=O (stereo not shown) [27f]
[4]
  inhibition of HLE: covalent inhibitors
SARS-CoV-2 M^pro [2]; [6]
  IC50: 35 ± 2 µM

## CC(C)(C)O[C@H]1C(=O)N2[C@@H](C(=O)OCc3ccccc3)C(C)(C)S(=O)(=O)[C@H]12 [27d]
SARS-CoV-2 M^pro [2]; [6]
  IC50: 21 ± 3 µM

## CO[C@H]1C(=O)N2[C@@H](C(=O)OCc3ccccc3)C(C)(C)S(=O)(=O)[C@H]12 [27a]
SARS-CoV-2 M^pro [1]
  covalent reaction with / modification of M^pro: in no case were substantial amounts of species corresponding to covalent modification observed; also recorded: did not evidence covalent modification
SARS-CoV-2 M^pro [2]; [7]
  IC50: 7.7 ± 4.9 µM

## CO[C@@]1(NC(=O)Cc2ccccc2)C(=O)N2[C@@H](C(=O)OCc3ccccc3)C(C)(C)[S+]([O-])[C@@H]21 (stereo partly shown) [compound 22]
SARS-CoV-2 M^pro [1]
  covalent reaction with / modification of M^pro: no evidence for covalent M^pro modification
SARS-CoV-2 M^pro [2]; [6]
  IC50: ~7.3 µM and 7.3 µM

## CC1(C)C(C(=O)OCc2ccccc2)N2C(=O)C(NC(=O)Cc3ccccc3)C2[S+]1[O-] (stereo not shown) [compound 21]
SARS-CoV-2 M^pro [2]; [6]
  IC50: > 50 µM

## CC(C)(C)O[C@H]1C(=O)N2[C@@H]1SC(C)(C)[C@@H]2C(=O)OCc1ccccc1 [26d]
SARS-CoV-2 M^pro [2]; [6]
  IC50: 39 ± 9 µM

## CC1(C)C(C(=O)OCc2ccccc2)N2C(=O)C(Oc3ccccc3)C2S1(=O)=O (stereo not shown) [27e]
SARS-CoV-2 M^pro [2]; [6]
  IC50: > 50 µM

## CO[C@@]1(NC(=O)Cc2ccccc2)C(=O)N2[C@@H](C(=O)OCc3ccccc3)C(C)(C)[S@@+]([O-])[C@@H]21 [compound 3, C6-methoxy (R)-sulfoxide penicillin G benzyl ester]
SARS-CoV-2 M^pro [1]
  mass shift of concentration-dependent M^pro adduct: +32 Da
  covalent reaction with / modification of M^pro: in no case were substantial amounts of species corresponding to covalent modification observed
  species with mass shifts corresponding to potential acyl–enzyme complexes: low levels
SARS-CoV-2 M^pro [2]; [6]
  IC50: ~0.8 µM and 0.8 µM
SARS-CoV-2 M^pro [2]
  increase in M^pro inhibition potency compared to (S)-sulfoxide 22: ~9 fold

## CO[C@H]1C(=O)N2[C@@H]1SC(C)(C)[C@@H]2C(=O)OCc1ccccc1 [26a]
SARS-CoV-2 M^pro [1]
  covalent reaction with / modification of M^pro: in no case were substantial amounts of species corresponding to covalent modification observed; also recorded: did not evidence covalent modification
SARS-CoV-2 M^pro [2]; [6]
  IC50: 1.2 ± 0.1 µM

## CC(C)O[C@H]1C(=O)N2[C@@H]1SC(C)(C)[C@@H]2C(=O)OCc1ccccc1 [26c]
SARS-CoV-2 M^pro [2]; [6]
  IC50: 47 ± 13 µM

## CC1(C)[C@H](C(=O)OCc2ccccc2)N2C(=O)[C@](NC(=O)COc3ccccc3)(OCc3ccccc3)[C@H]2S1(=O)=O [C00008]
SARS-CoV-2 M^pro [2]; [6]
  IC50: 8.3 ± 2.6 µM

## CO[C@@]1(NC(=O)Cc2ccccc2)C(=O)N2[C@@H](C(=O)OCc3ccccc3)C(C)(C)S(=O)(=O)[C@@H]21 [compound 20]
SARS-CoV-2 M^pro [2]; [6]
  IC50: 11 ± 4 µM

## COC1(NC(=O)Cc2ccccc2)C(=O)N2C1[S+]([O-])C(C)(C)C2C(=O)OCc1ccc([N+](=O)[O-])cc1 (stereo not shown) [compound 2]
SARS-CoV-2 M^pro [3]; literature value in Table 2
  IC50: ~3.5 µM
SARS-CoV-2 M^pro [1]; 5 : 1 inhibitor : M^pro, after 45 min, low levels
  mass shift of M^pro adduct: +32 Da
SARS-CoV-2 M^pro [1]; 5 : 1 inhibitor : M^pro, formed within 15 min, increasing intensity
  mass shift of M^pro adduct: +498 Da
SARS-CoV-2 M^pro [1]; 5 : 1 inhibitor : M^pro, t = 0 min / initial, weak intensity
  mass shift of M^pro adduct: +515 Da
SARS-CoV-2 M^pro [1]; 10:1 inhibitor : M^pro, after 45 min, low intensity
  mass shift of M^pro adduct: +32 Da
SARS-CoV-2 M^pro [1]; 10:1 inhibitor : M^pro, increasing intensity over 45 min
  mass shift of M^pro adduct: +498 Da
SARS-CoV-2 M^pro [1]; 10:1 inhibitor : M^pro, initial formation
  mass shift of M^pro adduct: +515 Da
SARS-CoV-2 M^pro [1]
  mass shift of concentration-dependent M^pro adduct: +32 Da
  covalent reaction with / modification of M^pro: in no case were substantial amounts of species corresponding to covalent modification observed
  species with mass shifts corresponding to potential acyl–enzyme complexes: low levels
SARS-CoV-2 M^pro [2]; [6]
  IC50: 0.5 ± 0.1 µM
SARS-CoV-2 M^pro [2]
  increase in M^pro inhibition potency compared to (S)-sulfoxide 22: ~9 fold

## CC1(C)[C@H](C(=O)OCc2ccccc2)N2C(=O)[C@](NC(=O)COc3ccccc3)(O[C@@H]3CCNC3=O)[C@H]2S1(=O)=O [C00006]
SARS-CoV-2 M^pro [2]; [6]
  IC50: 5.3 ± 1.6 µM

## CCO[C@H]1C(=O)N2[C@@H](C(=O)OCc3ccccc3)C(C)(C)S(=O)(=O)[C@H]12 [27b]
[4]
  inhibition of HLE: covalent inhibitors
SARS-CoV-2 M^pro [2]; [6]
  IC50: 44 ± 4 µM

## CCO[C@@]1(NC(=O)COc2ccccc2)C(=O)N2[C@@H](C(=O)OCc3ccccc3)C(C)(C)S(=O)(=O)[C@@H]21 [10a]
SARS-CoV-2 M^pro [2]; [6]
  IC50: 5.8 ± 1.9 µM

## CC1(C)SC2C(OCc3ccccc3)C(=O)N2C1C(=O)OCc1ccccc1 (stereo not shown) [26f]
SARS-CoV-2 M^pro [2]; [6]
  IC50: 7.3 ± 1.4 µM

## CO[C@@]1(NC(=O)COc2ccccc2)C(=O)N2[C@@H](C(=O)OCc3ccccc3)C(C)(C)S[C@@H]21 [compound 8]
SARS-CoV-2 M^pro [2]; [5]
  IC50: no inhibition in the tested concentration range
SARS-CoV-2 M^pro [2]; [6]
  IC50: > 50 µM
SARS-CoV-2 M^pro [2]; additional replicates using premade DMSO stock solutions, read-out: IC50
  IC50: ~5 µM

## CC1(C)[C@H](C(=O)OCc2ccccc2)N2C(=O)[C@@H](NC(=O)Cc3ccccc3)[C@H]2S1(=O)=O [compound 19]
SARS-CoV-2 M^pro [2]; [6]
  IC50: > 50 µM

## COC1(NC(=O)COc2ccccc2)C(=O)N2C1[S+]([O-])C(C)(C)C2C(=O)OCc1ccccc1 (stereo not shown) [compound 7]
SARS-CoV-2 M^pro [1]
  covalent reaction with / modification of M^pro: in no case were substantial amounts of species corresponding to covalent modification observed; also recorded: low levels of reaction
SARS-CoV-2 M^pro [2]; [6]
  IC50: ~2.3 µM and 2.3 µM

## CC1(C)[C@H](C(=O)OCc2ccccc2)N2C(=O)[C@@H](NC(=O)Cc3ccccc3)[C@H]2[S@+]1[O-] [compound 23]
SARS-CoV-2 M^pro [2]; [6]
  IC50: > 50 µM

## CC1(C)C(C(=O)OCc2ccccc2)N2C(=O)C(NC(=O)COc3ccccc3)C2[S+]1[O-] (stereo not shown) [compound 6]
SARS-CoV-2 M^pro [3]; [8]
  IC50: ~23 µM
SARS-CoV-2 M^pro [2]; [6]
  IC50: 6.3 ± 1 µM

## CC1(C)S[C@@H]2[C@H](NC(=O)Cc3ccccc3)C(=O)N2[C@H]1C(=O)OCc1ccccc1 [compound 18]
SARS-CoV-2 M^pro [2]; [6]
  IC50: > 50 µM

## CC1(C)S[C@H]2N(C(=O)[C@]2(NC(=O)COc2ccccc2)OCc2ccccc2)[C@H]1C(=O)OCc1ccccc1 [16c]
SARS-CoV-2 M^pro [2]; [5]
  IC50: inactive
SARS-CoV-2 M^pro [2]; [6]
  IC50: > 50 µM

## CCO[C@H]1C(=O)N2[C@@H]1SC(C)(C)[C@@H]2C(=O)OCc1ccccc1 [26b]
SARS-CoV-2 M^pro [2]; [6]
  IC50: 0.8 ± 0.1 µM

## CC1(C)S[C@@H]2[C@H](NC(=O)COc3ccccc3)C(=O)N2[C@H]1C(=O)OCc1ccccc1 [compound 5]
SARS-CoV-2 M^pro [3]; [8]
  IC50: > 50 µM
SARS-CoV-2 M^pro [2]; [7]
  IC50: > 50 µM
SARS-CoV-2 M^pro [2]; [5]
  IC50: no inhibition in the tested concentration range

## CC(C)O[C@H]1C(=O)N2[C@@H](C(=O)OCc3ccccc3)C(C)(C)S(=O)(=O)[C@H]12 [27c]
SARS-CoV-2 M^pro [2]; [6]
  IC50: 19 ± 14 µM

## CC1(C)[C@H](C(=O)OCc2ccccc2)N2C(=O)[C@@H](NC(=O)COc3ccccc3)[C@H]2S1(=O)=O [compound 1, penicillin V sulfone benzyl ester]
SARS-CoV-2 M^pro [3]; [8]
  IC50: ~6.6 µM
SARS-CoV-2 M^pro [2]; [6]
  IC50: 2.9 ± 0.4 µM

## CO[C@@]1(NC(=O)Cc2ccccc2)C(=O)N2[C@@H](C(=O)O)C(C)(C)S[C@@H]21 [compound 24, C6-methoxypenicillin G acid]
SARS-CoV-2 M^pro [2]; moderate inhibition potency observed in some cases (variable values, possible instability in DMSO), read-out: IC50
  IC50: 15 ± 8 µM
